Reference: the supplement of paper PMC8882468

How the values were obtained:
Test in all cases: CTG-3D luminescence at 96 h relative to day-0 seeding control (ratio to day 0); higher = more growth / less cytotoxicity; PDxO 3D drug screen (set 2), 96 h, CTG-3D normalised to day-0 seeding control.
HCI-010 = tested on: HCI-010 (organoid from a breast cancer xenograft)
HCI-025 = tested on: HCI-025 (organoid from a breast cancer xenograft)
HCI-016 = tested on: HCI-016 (organoid from a triple-negative breast cancer xenograft)
HCI-015 = tested on: HCI-015 (organoid from a triple-negative breast cancer xenograft)
HCI-008 = tested on: HCI-008 (organoid from a HER2-enriched breast cancer xenograft)

O=C(c1cc(Cc2n[nH]c(=O)c3ccccc23)ccc1F)N1CCN(C(=O)C2CC2)CC1 [olaparib]
CTG-3D luminescence at 96 h
Conditions	12.5 pM	0.00025 µM	0.005 µM	0.1 µM	1 µM	10 µM	100 µM	625 fM
HCI-008, days in culture: 325	1.39	1.88	1.46	3.33	2.71	1.99	0.484	1.65
HCI-008, days in culture: 340	1.45	2.1	1.84	1.46	1.67	–	0.958	1.34
HCI-008, days in culture: 354	1.36	1	1.35	1.2	1.22	1.33	0.836	1.44
HCI-008, days in culture: 382	1.49	1.46	1.23	2	0.89	0.955	0.204	1.8
HCI-010, days in culture: 79	2.04	1.79	2.08	2.11	1.98	1.43	0.445	2.19
HCI-010, days in culture: 86	2.3	2.5	2.59	2.35	2.34	1.68	0.309	2.43
HCI-010, days in culture: 102	1.21	1.27	1.15	1.36	1.26	0.657	0.0517	1.12
HCI-010, days in culture: 164	1.72	1.56	1.64	1.57	1.54	0.88	0.272	1.61
HCI-015, days in culture: 333	1.88	1.11	1.59	1.95	0.972	0.511	0.241	1.03
HCI-015, days in culture: 355	2.43	3.28	1.71	1.6	0.993	0.516	0.951	2.1
HCI-015, days in culture: 369	2.43	1.41	2.36	1.91	1.9	1.05	1.24	2.02
HCI-016, days in culture: 305	2.92	2.24	2.09	3.71	1.96	1.22	0.878	3.99
HCI-016, days in culture: 327	1.25	0.765	1.45	1.31	1.34	1.59	1.23	1.74
HCI-016, days in culture: 341	1.92	1.78	2.18	2.46	1.62	1.79	0.982	2.44
HCI-016, days in culture: 397	1.5	2.56	1.17	1.75	2.07	1.74	0.249	2.79
HCI-025, days in culture: 175	1.97	2.33	1.9	1.95	3.08	2.2	0.866	2.02
HCI-025, days in culture: 189	1.46	2.11	1.91	2.25	1.86	1.28	0.825	2.78
HCI-025, days in culture: 212	3.74	3.65	1.79	1.22	1.32	1.72	0.66	2
HCI-025, days in culture: 224	1.96	1.72	1.81	1.9	2.05	1.41	0.478	1.81

CC(=O)c1c(C)c2cnc(Nc3ccc(N4CCNCC4)cn3)nc2n(C2CCCC2)c1=O [palbociclib]
CTG-3D luminescence at 96 h
Conditions	12.5 pM	0.00025 µM	0.005 µM	0.1 µM	1 µM	10 µM	100 µM	625 fM
HCI-008, days in culture: 325	1.14	1.96	2.03	2.74	3.58	2.05	0.962	1.8
HCI-008, days in culture: 340	0.654	3.19	1.76	2.01	2.37	–	1.18	1.13
HCI-008, days in culture: 354	1.29	1.41	2.34	1	1.11	0.979	1.21	0.693
HCI-008, days in culture: 382	1.83	1.31	1.55	1.83	1.16	1.66	0.974	1.59
HCI-010, days in culture: 79	1.68	1.69	1.79	1.9	1.71	1.47	0.772	1.88
HCI-010, days in culture: 86	2.36	2.42	2.72	2.52	2.49	2.34	1.26	2.21
HCI-010, days in culture: 102	1.09	1.35	1.2	1.65	1.56	1.54	0.787	1.15
HCI-010, days in culture: 164	1.31	1.57	1.74	1.67	1.73	1.25	0.562	1.37
HCI-015, days in culture: 333	1.88	1.26	1.44	0.877	0.941	0.44	0.369	1.89
HCI-015, days in culture: 355	3.11	2.44	1.74	3.47	0.976	1.99	0.775	1.74
HCI-015, days in culture: 369	2.19	1.75	2.45	1.9	1.82	1.07	0.742	1.94
HCI-016, days in culture: 305	2.74	2.8	2.81	3.01	2.9	1.83	2.12	3.73
HCI-016, days in culture: 327	0.926	1.04	1.84	1.67	1.15	1.59	0.478	1.3
HCI-016, days in culture: 341	2.28	1.75	1.74	2.25	1.67	1.9	0.71	2.48
HCI-016, days in culture: 397	2	2.56	1.48	2.7	2.38	1.99	0.831	2.9
HCI-025, days in culture: 175	1.84	2.51	1.75	1.97	2.37	2.28	1.24	1.97
HCI-025, days in culture: 189	2.77	1.41	2.23	1.9	1.78	1.42	0.673	3.4
HCI-025, days in culture: 212	2.24	1.43	1.94	1.29	0.809	2.39	2.52	2.45
HCI-025, days in culture: 224	1.84	1.83	1.88	1.26	2	2.17	1.17	1.33

CO[C@H]1C[C@@H]2CC[C@@H](C)[C@@](O)(O2)C(=O)C(=O)N2CCCC[C@H]2C(=O)O[C@H]([C@H](C)C[C@@H]2CC[C@@H](O)[C@H](OC)C2)CC(=O)[C@H](C)/C=C(\C)[C@@H](O)[C@@H](OC)C(=O)[C@H](C)C[C@H](C)/C=C/C=C/C=C/1C [rapamycin]
CTG-3D luminescence at 96 h
Conditions	12.5 pM	0.00025 µM	0.005 µM	0.1 µM	1 µM	10 µM	100 µM	625 fM
HCI-008, days in culture: 325	1.02	2.07	1.15	1.85	1.96	1.63	0.0243	1.04
HCI-008, days in culture: 340	0.377	2.04	1.44	0.883	1.17	–	0.0122	0.721
HCI-008, days in culture: 354	1.17	0.924	1.28	0.845	0.613	1.04	0.0113	0.658
HCI-008, days in culture: 382	1.67	1.28	0.869	1.12	0.658	1.06	0.0068	1.24
HCI-010, days in culture: 79	1.09	1.02	1.11	1.13	0.996	0.98	0.00731	1.13
HCI-010, days in culture: 86	1.91	1.75	1.61	1.37	1.45	1.46	0.0226	2.35
HCI-010, days in culture: 102	0.91	0.799	0.831	0.806	0.875	0.636	0.00488	0.865
HCI-010, days in culture: 164	1.39	1.27	1.02	0.996	1.17	0.924	0.0097	1.26
HCI-015, days in culture: 333	1.29	0.897	0.593	1.1	0.612	0.447	0.0119	1.04
HCI-015, days in culture: 355	1.27	2.02	0.979	1.55	1.15	1.05	0.0149	1.06
HCI-015, days in culture: 369	1.79	1.03	1.2	1.39	1.48	0.955	0.00715	1.62
HCI-016, days in culture: 305	1.79	1.77	1.74	4.51	1.66	1.4	0.0174	3.16
HCI-016, days in culture: 327	0.432	0.896	2.06	1.99	0.951	1.2	0.023	0.782
HCI-016, days in culture: 341	1.45	1.24	1.81	1.73	1.34	1.81	0.00758	1.9
HCI-016, days in culture: 397	1.84	1.69	1.26	1.35	1.52	1.39	0.0166	1.94
HCI-025, days in culture: 175	1.08	1.22	1.44	1.39	1.87	1.67	0.0257	0.977
HCI-025, days in culture: 189	1.35	1.19	1.11	0.862	0.888	0.979	0.0056	1.27
HCI-025, days in culture: 212	2.1	0.842	1.53	1.27	0.387	1.15	0.0154	1.5
HCI-025, days in culture: 224	1.83	1.19	0.969	0.734	1.53	1.31	0.00743	1.36

CC(C)n1nc(-c2ccc3oc(N)nc3c2)c2c(N)ncnc21 [sapanisertib]
CTG-3D luminescence at 96 h
Conditions	12.5 pM	0.00025 µM	0.005 µM	0.1 µM	1 µM	10 µM	100 µM	625 fM
HCI-008, days in culture: 325	1.51	1.96	1.64	0.99	0.826	0.32	0.112	1.88
HCI-008, days in culture: 340	0.668	2.32	1.51	0.592	0.593	–	0.0751	0.965
HCI-008, days in culture: 354	1.18	1.2	2.84	0.615	0.502	0.229	0.122	1.31
HCI-008, days in culture: 382	1.81	1.93	1.22	0.751	0.282	0.304	0.0604	1.7
HCI-010, days in culture: 79	1.62	1.71	1.53	0.599	0.388	0.119	0.00579	1.95
HCI-010, days in culture: 86	2.29	2.56	2.36	0.928	0.647	0.182	0.012	2.51
HCI-010, days in culture: 102	1.31	1.4	1.07	0.401	0.241	0.0381	0.00408	1.02
HCI-010, days in culture: 164	1.54	1.67	1.55	0.695	0.643	0.245	0.0314	1.37
HCI-015, days in culture: 333	1.82	1.45	1.21	0.567	0.461	0.114	0.0973	1.56
HCI-015, days in culture: 355	2.17	1.74	1.65	1.3	0.564	0.557	0.233	1.38
HCI-015, days in culture: 369	2.06	1.61	2.17	0.797	0.611	0.449	0.336	1.68
HCI-016, days in culture: 305	2.57	3.24	2.48	1.62	0.527	0.566	0.455	3.26
HCI-016, days in culture: 327	1.38	1.23	1.37	0.784	0.464	0.679	0.258	1.7
HCI-016, days in culture: 341	2.37	1.72	2.04	1.14	0.566	0.673	0.378	2.96
HCI-016, days in culture: 397	1.83	2.36	1.47	1.2	0.701	0.688	0.324	2.37
HCI-025, days in culture: 175	1.69	1.73	1.62	0.506	0.401	0.466	0.283	2.01
HCI-025, days in culture: 189	2.16	2.67	1.63	0.619	0.34	0.244	0.0962	3.34
HCI-025, days in culture: 212	1.26	1.57	2.69	0.0755	0.227	0.183	0.277	1.33
HCI-025, days in culture: 224	2.13	1.98	1.91	0.411	0.423	0.26	0.17	1.86
